Assay results as given in patent US20180015100A1, “COMBINATION PRODUCTS FOR THE TREATMENT OF BACTERIAL INFECTIONS AND METHODS OF PRODUCING OR DOSING OF SAME” (priority 2016, published 2018).
Read-outs that look alike come from different tables or passages of the source. Marks after values point to notes of the source that are not given here.

Key:
[1] = cited from earlier work; for bioavailability / fCmax: po
[2] = cited from earlier work
[3] = tested on: 13 Enterobacteriaceae isolates; format: cell-based; details: with clavulanate 2:1
[4] = tested on: Enterobacter cloacae isolates; experiment: MIC of cephalosporins alone or with clavulanate/tazobactam; format: cell-based; details: clavulanate 2:1, tazobactam 4 μg/mL
[5] = tested on: Citrobacter freundii isolates; experiment: as above; format: cell-based; details: clavulanate 2:1, tazobactam 4 μg/mL
[6] = tested on: Enterobacter aerogenes isolates; experiment: as above; format: cell-based; details: Klebsiella aerogenes, clavulanate 2:1, tazobactam 4 μg/mL
[7] = tested on: 385 Escherichia coli and 126 Klebsiella pneumoniae isolates; experiment: MIC, MIC50 and MIC90 by reference broth microdilution against 511 UTI/bloodstream isolates (USA and Europe 2014-2015); format: cell-based; details: 511 isolates
[8] = tested on: Escherichia coli isolates; experiment: MIC of cephalosporins alone or with clavulanate/tazobactam; format: cell-based; details: clavulanate 2:1, tazobactam 4 μg/mL
[9] = tested on: Klebsiella oxytoca isolates; experiment: as above; format: cell-based; details: clavulanate 2:1, tazobactam 4 μg/mL
[10] = tested on: ESBL-producing Enterobacteriaceae isolates (panel of nineteen); experiment: MIC of cephalosporins alone or with clavulanate/tazobactam, whole panel; format: cell-based; details: cephalosporin alone; 19 isolates
[11] = tested on: Klebsiella pneumoniae isolates; experiment: MIC of cephalosporins alone or with clavulanate/tazobactam; format: cell-based; details: clavulanate 2:1, tazobactam 4 μg/mL
CTX-M-15 = CTX-M-15 (Escherichia coli, UniProt Q9EXV5); experiment: Competition assay with nitrocefin (IC50); format: biochemical
Sequence of CTX-M-15 (Q9EXV5 entry or part of it): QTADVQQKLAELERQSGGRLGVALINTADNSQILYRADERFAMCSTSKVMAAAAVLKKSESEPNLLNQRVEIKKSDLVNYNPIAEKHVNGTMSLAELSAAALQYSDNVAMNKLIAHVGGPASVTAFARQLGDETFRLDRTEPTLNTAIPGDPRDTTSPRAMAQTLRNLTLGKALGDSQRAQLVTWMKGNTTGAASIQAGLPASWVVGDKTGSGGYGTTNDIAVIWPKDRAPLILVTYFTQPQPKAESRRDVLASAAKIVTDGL

AECO001 = experiment: MIC of cephalosporins (Table 16); format: cell-based
CTX-M-15 Strain = experiment: MIC of cephalosporins without and with CLV (Table 16); format: cell-based; details: for MIC: read-out: MIC CTX-M-15 Strain − CLV; for MIC CTX-M-15 Strain + CLV: with CLV
[12] = tested on: COCC1=C(C(=O)O)N2C(=O)[C@@H](NC(=O)/C(=N\OC)c3csc(N)n3)[C@H]2SC1; experiment: purified protein, by the assay type; details: other: CTX-M-15-mediated hydrolysis; pH 7.0
[13] = tested on: C=CC1=C(C(=O)O)N2C(=O)[C@@H](NC(=O)/C(=N\OCC(=O)O)c3csc(N)n3)[C@H]2SC1; experiment: purified protein, by the assay type; details: other: CTX-M-15-mediated hydrolysis; pH 7.0

Compound | Mean Cmax ([1]; in vivo, 200 mg) [ng/mL] | Mean fCmax ([1]; in vivo, 200 mg) [µg/mL] | bioavailability ([1]; in vivo) | MIC ([4]; AECL1065 (CTX-M-15)) [µg/mL] | MIC ([4]; AECL1067 (CTX-M-3)) [µg/mL] | MIC ([5]; ACFR1034 (CTX-M-15, TEM-OSBL)) [µg/mL] | MIC ([5]; ACFR1035 (CTX-M-3, TEM-OSBL)) [µg/mL] | MIC ([6]; AEAE1027 (CTX-M-14)) [µg/mL] | MIC ([6]; AEAE1029 (CTX-M-15)) [µg/mL] | MIC ([8]; AECO001 (no ESBL)) [µg/mL] | MIC ([8]; AECO1078 (CTX-M-15)) [µg/mL] | MIC ([8]; AECO1157 (CTX-M-15, TEM-OSBL)) [µg/mL] | MIC ([8]; AECO1159 (CTX-M-15)) [µg/mL] | MIC ([8]; AECO1169 (CTX-M-1, TEM-OSBL)) [µg/mL] | MIC ([8]; AECO1172 (CTX-M-14)) [µg/mL] | MIC ([9]; AKOX1005 (SHV-2, TEM-1, DHA-1)) [µg/mL] | MIC ([9]; AKOX1009 (CTX-M-15)) [µg/mL] | MIC ([11]; AKPN1159 (SHV-12)) [µg/mL] | MIC ([11]; AKPN1161 (SHV-7)) [µg/mL] | MIC ([11]; AKPN1162 (CTX-M-15, SHV-12)) [µg/mL] | other results
CO/N=C(\C(=O)N[C@@H]1C(=O)N2C(C(=O)O)=C(/C=C\c3scnc3C)CS[C@H]12)c1csc(N)n1 [Cefditoren, cefditoren] | 1800 | 0.22 | 14% | – | – | – | – | – | – | – | – | – | – | – | – | – | – | – | – | – | Mean unbound plasma concentration following one elimination half-life ([1]; in vivo): 0.11 µg/mL; peak free drug concentrations ([1]; in vivo): ≤ 0.3 µg/mL; Protein binding (% bound) ([2]; plasma): 88 (plasma) % bound; MICs range against ESBL+ isolates (Table 3) [3]: 0.12 to 2 µg/mL
CO/N=C(\C(=O)N[C@@H]1C(=O)N2C(C(=O)[O-])=C(C[N+]3(C)CCCC3)CS[C@H]12)c1csc(N)n1 [Cefepime, cefepime] | – | – | – | > 32 | > 32 | > 32 | > 32 | 8 | > 32 | ≤ 0.031 | > 32 | 32 | > 32 | > 32 | > 32 | 0.25 | 32 | 2 | 1 | > 32 | MIC50 [7]: > 16 µg/mL; EUCAST % I ([7]; EUCAST 2016 criteria): 10.0%; MIC90 ([7]; read-out: MIC90): > 16 µg/mL; MIC ([8]; AECO1147 (CTX-M-15)): 4 µg/mL; ESBL-producing isolates with MIC<8 μg/mL [10]: 4 of 19; MIC ([11]; AKPN1166 (CTX-M-14, SHV-12)): 4 µg/mL; MIC ([11]; AKPN1167 (SHV-2)): 8 µg/mL
C=CC1=C(C(=O)O)N2C(=O)[C@@H](NC(=O)/C(=N\OCC(=O)O)c3csc(N)n3)[C@H]2SC1 [Cefixime, cefixime] | 2000 | 0.7 | 40-90% | > 64 | > 64 | > 64 | > 64 | 8 | > 64 | 1 | > 64 | > 64 | > 64 | 16 | 16 | 16 | > 64 | 32 | 32 | > 64 | IC50 (CTX-M-15): 20 µM; Mean unbound plasma concentration following one elimination half-life ([1]; for highest plasma concentration from previous row): 0.65 (400 mg) μg/mL; Mean Cmax ([1]; in vivo, 400 mg): 3700 ng/mL; Mean fCmax ([1]; in vivo, 400 mg): 1.3 µg/mL; fCmax ([1]; in vivo): 2.7 µg/mL; Elimination half-life ([1]; plasma): 3-4^b h; MIC (AECO001): 1 µg/mL; MIC (CTX-M-15 Strain): > 64 µg/mL; MIC CTX-M-15 Strain + CLV (CTX-M-15 Strain): 2 µg/mL; Protein binding (% bound) ([2]; serum): 65 (serum) % bound; MIC ([11]; AKPN1166 (CTX-M-14, SHV-12)): > 64 µg/mL; MIC ([11]; AKPN1167 (SHV-2)): 8 µg/mL
CO/N=C(\C(=O)N[C@@H]1C(=O)N2C(C(=O)O)=C(COC(C)=O)CS[C@H]12)c1csc(N)n1 [Cefotaxime, cefotaxime] | – | – | – | – | – | – | – | – | – | – | – | – | – | – | – | – | – | – | – | – | IC50 (CTX-M-15): 31 µM; MIC (AECO001): 0.125 µg/mL
COCC1=C(C(=O)O)N2C(=O)[C@@H](NC(=O)/C(=N\OC)c3csc(N)n3)[C@H]2SC1 [Cefpodoxime, cefpodoxime] | 2300 | 1.8 | 40-90% | > 64 | > 64 | > 64 | > 64 | > 64 | > 64 | 0.5 | > 64 | > 64 | > 64 | > 64 | > 64 | 32 | > 64 | 64 | 16 | > 64 | IC50 (CTX-M-15): 24 µM; Mean Cmax ([1]; in vivo, 100 mg): 1400 ng/mL; Mean fCmax ([1]; in vivo, 100 mg): 1.1 µg/mL; Mean Cmax ([1]; in vivo, 400 mg): 3900 ng/mL; half-life ([1]; in vivo, 800 mg): 2.9 h; fCmax ([1]; in vivo, 800 mg): approximately 5.4 μg/mL; Elimination half-life ([1]; in vivo): 2.1 to 2.8 h; Mean unbound plasma concentration following one elimination half-life ([1]; in vivo): 1.55 (400 mg) μg/mL; MIC (AECO001): 0.5 µg/mL; MIC (CTX-M-15 Strain): > 64 µg/mL; MIC CTX-M-15 Strain + CLV (CTX-M-15 Strain): 4 µg/mL; Protein binding (% bound) ([2]; plasma): 21-29 (plasma) % bound; Protein binding (% bound) ([2]; serum): 22-33 (serum); % bound; MIC ([8]; AECO1147 (CTX-M-15)): > 64 µg/mL; MIC ([11]; AKPN1166 (CTX-M-14, SHV-12)): > 64 µg/mL; MIC ([11]; AKPN1167 (SHV-2)): > 64 µg/mL
CTX-M-15 (Escherichia coli) | – | – | – | – | – | – | – | – | – | – | – | – | – | – | – | – | – | – | – | – | Km [12]: 13 (10-16) μM; kcat [12]: 50 s⁻¹; kcat/Km [12]: 3.8e+06 M⁻¹ s⁻¹; Km [13]: 14 (11-18) μM; kcat [13]: 2 s⁻¹; kcat/Km [13]: 140000 M⁻¹ s⁻¹
